# Measurements from patent US20250171434A1, “SEC61 INHIBITORS AND USE THEREOF” (KEZAR LIFE SCIENCES, INC., priority 2022, published 2025).
# Read-outs that look alike come from different tables or passages of the source.
# Experiments:
# [1] = test system: PD1-ss+10aa/Gaussia Luciferase; experiment: Dox-Induced PD1-ss-Gluc Assay; type: cell-based
# How it was run: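 Stable Flp-In 293 T-REx cells carried a doxycycline-inducible construct of Gaussia luciferase fused to the PD1 signal sequence plus 10 amino acids. Cells were plated the day before, then treated with compound dilutions in DMSO/media containing doxycycline at 37 °C, 5% CO2.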
# [2] = test system: IL-2-FL/Gaussia Luciferase; experiment: Dox Inducible IL2-FL-Gluc Assay; type: cell-based
# How it was run: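 Reporter is Gaussia luciferase fused to the 3′ end of full-length IL-2 (aa 1-153), expressed from a doxycycline-inducible T-REx construct in stably selected Flp-In 293 cells. Compounds were co-added with doxycycline and incubated at 37° C, 5% CO2.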
# [3] = test system: CD47(ss + 10)Gluc; experiment: Dox-Induced CD47-ss-Gluc Assay; type: cell-based
# [4] = test system: IL6R-ss+10aa/Gaussia Luciferase; experiment: Dox-induced IL-6R-ss-Gluc Assay; type: cell-based
# How it was run: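 Flp-In 293 T-REx cells stably carrying a doxycycline-inducible IL6R signal sequence+10 aa fused to Gaussia luciferase. Cells plated the day before; compound dilutions added in DMSO/media containing doxycycline and incubated at 37 °C, 5% CO2.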
# [5] = test system: multiple myeloma cell line NCI-H929; experiment: H929 Cell Viability Assay; type: cell-based, human; details: NCI-H929 cells, 48 hours, Celltiter-Glo; for EC50: Homo sapiens, read-out: 48 hr H929 Viability Celltiter-Glo: Mean EC50
# How it was run: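 Plate the myeloma cells in RPMI 1640 with 10% FBS, add serially diluted compound, incubate for 48 hours at 37° C, then add CellTiter-Glo and read luciferase signal.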
# [6] = test system: multiple myeloma cell line U266B1; experiment: U266 Cell Viability Assay; type: cell-based; details: Homo sapiens
# How it was run: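 48 h treatment, 37° C./5% CO2, RPMI 1640 + 10% FBS; viability by CellTiter-Glo luminescence.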
# [7] = Liver Microsome Stability Assay, mouse; type: in vitro ADME; details: mouse liver microsomes 1.0 mg/mL, 1.0 uM compound, 37° C., 1 mM NADPH
# How it was run: (§1)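 1.0 uM cpd, 0.4% DMSO, 1.0 mg/mL microsomes, 0.1 M KPi, 37° C, ±1 mM NADPH; quench 0 and 30 min.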
# [8] = Liver Microsome Stability Assay, rat; type: in vitro ADME; details: rat liver microsomes 1.0 mg/mL, 1.0 uM compound, 37° C., 1 mM NADPH
# How it was run: as §1
# [9] = Liver Microsome Stability Assay, monkey; type: in vitro ADME; details: monkey liver microsomes 1.0 mg/mL, 1.0 uM compound, 37° C., 1 mM NADPH
# How it was run: as §1
# [10] = Liver Microsome Stability Assay, human; type: in vitro ADME; details: human liver microsomes 1.0 mg/mL, 1.0 uM compound, 37° C., 1 mM NADPH
# How it was run: as §1
# [11] = Flp-In 293 T-REx cells, 24 hours with doxycycline; Table 1; read-out: 24 hr Dox Inducible PD1ssGluc 293FRT/TO: Mean IC50
# [12] = Flp-In 293 T-REx cells, 24 hours with doxycycline; Table 1; read-out: 24 hr Dox Inducible IL2FLGluc 293FRT/TO: Mean IC50
# [13] = ratio of IC50s IL2/PD1; Table 1
# [14] = Flp-In 293 T-REx cells, 24 hours with doxycycline; Table 1; read-out: 24 hr Dox Inducible CD47(ss + 10)Gluc 293FRT/TO: Mean IC50
# [15] = Flp-In 293 T-REx cells, 24 hours with doxycycline; Table 1; read-out: 24hr Dox Inducible IL6R(ss + 10)Gluc 293FRT/TO: Mean IC50
# [16] = ratio of IC50s IL6R/PD1; Table 1
# [17] = U-266, U266B1 cells, 48 hours, Celltiter-Glo, read-out: 48 hr U266 Viability Celltiter-Glo: Mean EC50
SMILES,"IC50 [1, 11]","IC50 [2, 12]","24 hr Dox Inducible IL2FLGluc 293FRT/TO: IL2/PD1 [2, 13]","IC50 [3, 14]","IC50 [4, 15]","24hr Dox Inducible IL6R(ss + 10)Gluc 293FRT/TO: IL6R/PD1 [4, 16]",EC50 [5],"EC50 [6, 17]",Liver Microsome Stability (Multiple Species): Mouse - % Remaining after 30 min w/ NADPH (%) [7],Liver Microsome Stability (Multiple Species): Rat - % Remaining after 30 min w/ NADPH (%) [8],Liver Microsome Stability (Multiple Species): Monkey - % Remaining after 30 min w/ NADPH (%) [9],Liver Microsome Stability (Multiple Species): Human - % Remaining after 30 min w/ NADPH (%) [10],"IC50 ([1]; read-out: 24 hr Dox Inducible PD1ssGluc 293FRT/TO: Mean IC50; Flp-In 293 T-REx cells, 24 hours with doxycycline; Table 1)","IC50 ([2]; read-out: 24 hr Dox Inducible IL2FLGluc 293FRT/TO: Mean IC50; Flp-In 293 T-REx cells, 24 hours with doxycycline; Table 1)","IC50 ([3]; read-out: 24 hr Dox Inducible CD47(ss + 10)Gluc 293FRT/TO: Mean IC50; Flp-In 293 T-REx cells, 24 hours with doxycycline; Table 1)","IC50 ([4]; read-out: 24hr Dox Inducible IL6R(ss + 10)Gluc 293FRT/TO: Mean IC50; Flp-In 293 T-REx cells, 24 hours with doxycycline; Table 1)",48 hr H929 Viability Celltiter-Glo: Mean EC50 (nM) [5],"EC50 ([6]; U-266, 48 h, read-out: 48 hr U266 Viability Celltiter-Glo: Mean EC50 (nM))"
"N#Cc1ccc(/C=C/c2csc(NC(=O)c3cccn3Cc3ccnc(F)c3)n2)nc1 [Compound B13, (E)-N-(4-(2-(5-cyanopyridin-2-yl)vinyl)thiazol-2-yl)-1-((2-fluoropyridin-4-yl)methyl)-1H-pyrrole-2-carboxamide]",0.05 µM,> 25 µM,>500,> 25 µM,> 25 µM,>500,> 25 µM,> 25000 nM,4%,<1%,<1%,<1%,–,–,–,–,–,–
"O=C(Nc1nc(/C=C/c2cn(C(F)(F)F)cn2)cs1)c1cc(Cl)cn1Cc1ccnc(F)c1 [Compound A3, (E)-4-chloro-1-((2-fluoropyridin-4-yl)methyl)-N-(4-(2-(1-(trifluoromethyl)-1H-imidazol-4-yl)vinyl)thiazol-2-yl)-1H-pyrrole-2-carboxamide]",1.76 µM,12.2 µM,7,15.2 µM,4.68 µM,3,4.55 µM,> 20200 nM,61%,21%,4%,6%,–,–,–,–,–,–
"CC(C)n1cnc(/C=C/c2csc(NC(=O)c3cc(Cl)cn3Cc3ccnc(F)c3)n2)c1C(F)(F)F [Compound A10, (E)-4-chloro-1-((2-fluoropyridin-4-yl)methyl)-N-(4-(2-(1-isopropyl-5-(trifluoromethyl)-1H-imidazol-4-yl)vinyl)thiazol-2-yl)-1H-pyrrole-2-carboxamide]",0.011 µM,1.07 µM,97,0.933 µM,1.05 µM,96,5.45 µM,> 25000 nM,87%,77%,38%,27%,–,–,–,–,–,–
"[2H]C([2H])(c1ccnc(F)c1)n1cc(Cl)cc1C(=O)Nc1nc(/C=C/c2ncn(C3CC3)c2Cl)cs1 [Compound A11, (E)-4-chloro-N-(4-(2-(5-chloro-1-cyclopropyl-1H-imidazol-4-yl)vinyl)thiazol-2-yl)-1-((2-fluoropyridin-4-yl)methyl-d2)-1H-pyrrole-2-carboxamide]",0.011 µM,1.18 µM,110,1.46 µM,1.2 µM,112,11.9 µM,> 25000 nM,87%,17%,6%,14%,–,–,–,–,–,–
"CN[C@H]1CC[C@@H](/C=C/c2csc(NC(=O)c3cccn3Cc3ccncc3)n2)CC1 [Compound B11, N-(4-((E)-2-((1s,4s)-4-(methylamino)cyclohexyl)vinyl)thiazol-2-yl)-1-(pyridin-4-ylmethyl)-1H-pyrrole-2-carboxamide]",18.7 µM,14.1 µM,0.8,> 25 µM,> 25 µM,>1.3,24.7 µM,> 25000 nM,54%,32%,3%,1%,–,–,–,–,–,–
"CC(=O)N[C@H]1CC[C@@H](/C=C/c2csc(NC(=O)c3cccn3Cc3ccncc3)n2)CC1 [Compound B15, N-(4-((E)-2-((1s,4s)-4-acetamidocyclohexyl)vinyl)thiazol-2-yl)-1-(pyridin-4-ylmethyl)-1H-pyrrole-2-carboxamide]",11.9 µM,> 25 µM,>2.1,> 25 µM,> 25 µM,>2,> 25 µM,> 25000 nM,2%,1%,<1%,<1%,–,–,–,–,–,–
"COc1cc(C(=O)Nc2nc(/C=C/c3ncn(C(C)C)c3Cl)c(Cl)s2)n(Cc2ccnc(F)c2)c1 [Compound A6, (E)-N-(5-chloro-4-(2-(5-chloro-1-isopropyl-1H-imidazol-4-yl)vinyl)thiazol-2-yl)-1-((2-fluoropyridin-4-yl)methyl)-4-methoxy-1H-pyrrole-2-carboxamide]",–,–,29,–,–,28,–,–,96%,76%,30%,48%,0.085 µM,2.42 µM,2.16 µM,2.33 µM,I.A,> 25000 nM
